Measured values published in ChEMBL document CHEMBL1759903, “Pentacycloundecane-based inhibitors of wild-type C-South African HIV-protease” (Bioorg Med Chem Lett, 2011).
pIC50: −log10 of the molar value. Peptide text beside a SMILES is read from it. * marks the point of attachment. X1 = Oc1cccc(N*)c1

Biological target: Protease (Human immunodeficiency virus 1, UniProt Q9YQ12)
Test: Inhibition of HIV1 subtype C protease expressed in Escherichia coli BL21 assessed as hydrolysis of substrate using chromogenic substrate Lys-Ala-Arg-Val-Nle-p-nitro-Phe-Glu-Ala-Nle-NH2 by spectrophotometric analysis

Chain of Protease (Q9YQ12 whole entry): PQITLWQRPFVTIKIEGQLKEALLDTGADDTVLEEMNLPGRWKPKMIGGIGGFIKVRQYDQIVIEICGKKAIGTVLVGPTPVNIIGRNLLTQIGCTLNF

Row | Structure (SMILES) | pIC50
1 | CC[C@H](C)[C@H](NC(=O)[C@@H](N)CO)C(=O)N[C@@H](C)C(=O)N[C@]12NC(=O)[C@@]3(O)C4C5CC(C6C5C3C61)C42 (some centres undefined) | 6.30
2 | CC[C@H](C)[C@H](NC(=O)[C@@H](N)CO)C(=O)N[C@@H](C)C(=O)N[C@@]12NC(=O)[C@]3(O)C4C5CC(C6C5C3C61)C42 (some centres undefined) | 5.00
3 | CC[C@H](C)[C@H](N)C(=O)N[C@@H](C)C(=O)N[C@@H](CCC(=O)O)C(=O)NC12NC(=O)C3(O)C4C5CC(C6C5C3C61)C42 (mixture of isomers) | 6.30
4 | CC[C@H](C)[C@H](NC(=O)[C@@H](N)CO)C(=O)N[C@@H](C)C(=O)N[C@@H](CCC(=O)O)C(=O)NC12NC(=O)C3(O)C4C5CC(C6C5C3C61)C42 (mixture of isomers) | 7.11
5 | CC[C@H](C)[C@H](NC(=O)[C@@H](N)CO)C(=O)N[C@H](C(=O)N[C@@H](CCC(=O)O)C(=O)NC12NC(=O)C3(O)C4C5CC(C6C5C3C61)C42)C(C)C (mixture of isomers) | 5.70
6 | CC[C@H](C)[C@H](NC(=O)[C@@H](N)CO)C(=O)N[C@@H](C)C(=O)N[C@@H](CCC(N)=O)C(=O)NC12NC(=O)C3(O)C4C5CC(C6C5C3C61)C42 (mixture of isomers) | 5.30
7 | CC[C@H](C)[C@H](NC(=O)[C@@H](N)CO)C(=O)N[C@@H](C)C(=O)N[C@@H](CCC(=O)O)C(=O)Nc1cccc(O)c1 (H-SIAE-X1) | 5.00
8 | COC(=O)N[C@H](C(=O)N[C@@H](Cc1ccccc1)[C@@H](O)CN(Cc1ccc(-c2ccccn2)cc1)NC(=O)[C@@H](NC(=O)OC)C(C)(C)C)C(C)(C)C [ATAZANAVIR] | 8.40
9 | CC[C@H](C)[C@H](NC(=O)[C@@H](N)CO)C(=O)N[C@@H](C)C(=O)N[C@@H](CCC(=O)O)C(=O)NC12NC(=O)C3(OC(C)=O)C4C5CC(C6C5C3C61)C42 (mixture of isomers) | < 5.00
